Experiments:
pendrin = molecular target: T1, pendrin (Homo sapiens, UniProt O43511); assay: BCECF cytoplasmic pH assay of pendrin-mediated Cl−/HCO3− exchange in pendrin-expressing FRT cells; format: cell-based; parameters: expressed in transfected cells
T1 sequence (O43511 1-780): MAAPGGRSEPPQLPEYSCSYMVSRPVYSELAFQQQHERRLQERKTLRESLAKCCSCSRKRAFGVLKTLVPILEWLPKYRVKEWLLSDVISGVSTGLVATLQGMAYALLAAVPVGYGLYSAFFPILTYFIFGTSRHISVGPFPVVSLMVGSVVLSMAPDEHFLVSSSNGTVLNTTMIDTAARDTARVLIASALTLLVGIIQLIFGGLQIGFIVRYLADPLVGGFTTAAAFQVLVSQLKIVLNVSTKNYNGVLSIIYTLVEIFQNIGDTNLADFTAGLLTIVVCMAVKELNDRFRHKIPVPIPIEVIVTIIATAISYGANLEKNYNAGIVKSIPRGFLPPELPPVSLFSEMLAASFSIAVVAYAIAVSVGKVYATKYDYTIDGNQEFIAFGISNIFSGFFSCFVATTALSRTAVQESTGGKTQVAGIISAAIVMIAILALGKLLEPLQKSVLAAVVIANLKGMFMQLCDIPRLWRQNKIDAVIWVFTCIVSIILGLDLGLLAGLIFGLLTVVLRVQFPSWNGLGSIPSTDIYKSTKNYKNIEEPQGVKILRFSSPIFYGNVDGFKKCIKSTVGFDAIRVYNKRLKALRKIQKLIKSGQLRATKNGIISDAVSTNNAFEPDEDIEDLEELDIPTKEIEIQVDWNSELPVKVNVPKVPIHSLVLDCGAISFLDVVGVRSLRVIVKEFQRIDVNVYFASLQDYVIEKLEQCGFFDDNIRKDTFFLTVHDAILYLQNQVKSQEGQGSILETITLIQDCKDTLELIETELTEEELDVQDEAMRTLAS
Description: Cytoplasmic pH (pHi) was measured to assay pendrin-mediated Cl^−/HCO3^− exchange in pendrin-expressing FRT cells and primary cell cultures using the pH-sensitive fluorescent probe BCECF. Cells were loaded for 20 min using 10 μM BCECF-AM (Invitrogen, Carlsbad, Calif.) in HCO3^−-containing buffer (in mM: 120 NaCl, 5 KCl, 1 CaCl2), 1 MgSO4, 10 glucose, 5 Hepes, 25 NaHCO3; pH 7.4) at 27° C. in a tissue culture incubator. Cells were washed and transferred to the stage of a TE2000 microscope (Nikon, Melville, N.Y.) equipped with a C9100 EM-CCD (Hamamatsu, San Jose, Calif.), XCite light source (Excelitas, Waltham, Mass.), Nikon 20×N.A. 0.75 S Fluor objective, Uniblitz shutter (Vincent Associates, Rochester, N.Y.), and filters for BCECF fluorescence (Chroma, Bellows Fall, Vt.), where they were purged with 95% O2/5% CO2. […] BCECF pH-sensitive fluorescence (490 nm excitation, 535 nm emission) was acquired at 0.5 Hz, with control experiments confirming that BCECF pH-insensitive fluorescence was not altered during exchange protocols. In some experiments pHi changes in the absence of HCO3^− were measured using buffers in which NaCl or Na gluconate replaced NaHCO3^−. To relate BCECF fluorescence to pH, a calibration curve over the quasi-linear range of BCECF sensitivity (pH 6.6-7.7) was generated as described. […]

[1] = system: chronically furosemide-treated mice; assay: Chronic furosemide treatment model in mice; format: in vivo; conditions: 10 mg/kg after 8 days furosemide 20 mg/kg twice a day, 3 h urine
Description: Because chronic loop diuretic treatment upregulates renal pendrin expression, which might potentiate the diuretic efficacy of pendrin inhibition, the action of PDSinh-C01 in a chronic furosemide treatment model.
In chronic studies, mice were injected with 20 mg/kg furosemide (ip) twice a day for 8 days and then administered PDSinh-C01 (10 mg/kg) or vehicle at the time of the final furosemide dose. Urine was collected for 3 h as described above.
After 8 days of furosemide treatment, PDSinh-C01 further potentiated the furosemide effect.

mice (CD-1 and C57Bl/6) = assay: Acute furosemide diuresis model in mice; format: in vivo
Description: Pharmacokinetics measurements were done to guide studies of diuretic efficacy. Animal experiments were approved by UCSF Institutional Animal Care and Use Committee. Female CD1 mice (8-10 weeks) were injected with 10 mg/kg PDSinh-C01 (in saline containing 5% DMSO and 10% Kolliphor HS) ip and blood was collected by orbital puncture at 15, 30, 60, 150 and 240 min, and centrifuged at 5000 rpm for 15 min to separate plasma. Urine was collected in metabolic cages. An LC/MS method was developed to measure PDSinh-C01 concentrations in mouse blood and urine. Plasma and urine samples (60 μL) were mixed with 300-μL acetonitrile and centrifuged at 13000 rpm for 20 min, and 90 μL of the supernatant was taken for liquid chromatography/mass spectrometry (LC/MS; Waters 2695 and Micromass ZQ). […] Sodium and potassium concentrations in 3-h collected urine samples were measured by flame photometry (PFP7 Clinical Flame Photometer, Bibby Scientific Ltd, Stone. Staffs, UK). […] Blood gas was analyzed by iSTAT1 with CG4+ cartridges (Abbott Laboratories, Abbott Park, IL, USA). Urine pH was measured on freshly collected urine samples using an AB 15 pH Meter (Fisher Scientific, Pittsburgh, Pa., USA). Experiments with two groups were analyzed with Student's t-test, and experiments with 3 or more groups were analyzed using one-way analysis of variance and post-hoc Newman-Keuls multiple comparisons test. […]

inhibition of cytoplasmic alkalinization (Cl−/HCO3− exchange) (pendrin; 25 μM)	IC50 (pendrin; Cl−/HCO3− exchange, read-out: concentration giving fifty percent inhibition of Cl−/HCO3− exchange) [nM]	Compound	increase in urine volume [1] [%]	increase in urine volume (mice (CD-1 and C57Bl/6); 10 mg/kg ip with furosemide 5-50 mg/kg, 3 h urine) [%]	3-h urinary K+ excretion (mice (CD-1 and C57Bl/6); with furosemide)
strongly inhibited	~2500	Cn1nc(COc2cccc(F)c2)c2c1CCN(C(=O)Nc1ccc(Cl)cc1)C2 [PDSinh-A01]			
		Cc1n[nH]c(-c2cc(S(=O)(=O)NC3CCCc4ccccc43)c(C)s2)c1C (centres unmarked) [PDSinh-C01]	~60	~30	no significant effect
